Values joined by “and” are separate entries in the source; they are usually repeats but may differ in a detail not shown here. Equal values may be shown once.
System: 598228-144-R-J1-PDC complex spheroid viability
Test: Anticancer human tumor 598228-144-R-J1-PDC patient-derived serous endometrial adenocarcinoma cell line growth inhibition [GQUAD]
Details: for viability, T/C: stronger effect = lower value
Description: DNA G-quadruplex Stabilizer Agents in Combinations in Complex Spheroids
A high-throughput screen of multi-cell type tumor spheroids was designed to identify active combinations of DNA G-quadruplex stabilizer agents and targeted small molecules. Complex spheroids include a stromal component modeled by human endothelial cells (HUVEC) and fibroblasts modeled by human mesenchymal stem cells (MSCs). The concentration ranges selected for each drug and investigational agent were based upon clinically achievable concentrations if the clinical Cmax of the agent was known.
Compounds. The drugs and investigational agents: pidnarulex (CX-5461; NSC782164), APTO-253 (NSC789042), BRACO-19 (NSC847499), peposertib (NSC802822), ceralasertib (NSC780249), elimusertib (NSC800525), camonsertib (NSC841442), AZD-1390 (NSC803789), olaparib (NSC753686), talazoparib (NSC767125), ART-558 (NSC835418), sotorasib (NSC818433), MRTX-1133 (NSC836407), SN-38 (NSC673596), topotecan (NSC609699), etoposide (NSC141540), doxorubicin (NSC123127), gemcitabine (NSC613327), 5-fluorouracil (NSC19893), paclitaxel (NSC125973), vemurafenib (NSC761431), panobinostat (NSC761190), R-306465 (JNJ-16241199; NSC773264), adavosertib (NSC754352), TP-3654 (NSC805149), carboplatin (NSC241240), KSQ-4279 (NSC840948), and staurosporine (NSC755774) were obtained from the National Cancer Institute (NCI) Developmental Therapeutics Program Chemical Repository (34). The FDA-approved anticancer drug set is available from the NCI Developmental Therapeutics Program. […] The stock solutions were prepared in dimethyl sulfoxide (DMSO, Sigma-Aldrich, St. Louis, MO, cat. D2650) at 800-fold the tested concentration and stored at -70 degrees C prior to their use. All drugs and investigational agents were tested over a range starting from a high concentration at or near the clinical Cmax and decreasing in half-log increments. If the clinical Cmax for an agent had not been determined, the highest concentration tested was 10 microM.
2.3 Cell Culture. All cells were maintained in an incubator at 37 degrees C and 5% CO2 with 95% humidity. The PDC lines were cultured according to standard operating procedures established by the NCI PDMR. All PDCs were thawed and cultured in Matrigel-coated flasks prepared with a working solution of 1X Ham's F-12 nutrient mix, without supplementation (Invitrogen, cat. 11765054), 100 U/mL penicillin-streptomycin (Invitrogen, cat. 15140122), and 2.5% Matrigel (Corning Inc., cat. 354248) for the first three passages. The 857933-349-R-J2-PDC line was cultured in 6C/Colon 1B media, which includes advanced DMEM/F-12 (Thermo Fisher Scientific, cat. 12634028), 10 mM HEPES (Thermo Fisher Scientific, cat. 15630080), 1X GlutaMAX supplement (Thermo Fisher Scientific, cat. 35050061), 0.1 mg/mL primocin (InvivoGen, cat. ant-pm-2), 10% defined fetal bovine serum, heat inactivated (HyClone Laboratories Inc., cat. SH30070.03HI), 50% L-WRN conditioned media (ATCC, cat. CRL-3276), 1.25 mM N-Acetyl-L-cysteine (Sigma-Aldrich, cat. A9165), 10 mM nicotinamide (Sigma-Aldrich, cat. N0636), 1X B-27 supplement (Thermo Fisher Scientific, cat. 17504044), 1X N-2 supplement (Thermo Fisher Scientific, cat. 17502048), 10 microM Y-27632 dihydrochloride (Tocris Bioscience, cat. 1254), and 50 ng/mL human EGF recombinant protein (Thermo Fisher Scientific, cat. PHG0311). The 485176-168-R4-J1-PDC line was cultured in Panc media, which includes all 6C/Colon 1B media components plus 100 ng/mL human FGF-10 (Thermo Fisher Scientific, cat. 100-26), 500 nM SB-431542 (Selleckchem, cat. S1067), and gastrin (Tocris, cat. 3006).
[…]

[1] = curve of first compound, second compound 0.0316 µM
[2] = curve of first compound, second compound 0.1 µM
[3] = curve of first compound, second compound 0.316 µM
[4] = curve of first compound, second compound 1 µM
[5] = curve of first compound, second compound 3.16 µM
[6] = curve of first compound, second compound 10 µM
[7] = second compound 0.0316 µM, first compound 0.0316 µM
[8] = second compound 0.0316 µM, first compound 0.1 µM
[9] = second compound 0.0316 µM, first compound 0.316 µM
[10] = second compound 0.0316 µM, first compound 1 µM
[11] = second compound 0.0316 µM, first compound 3.16 µM
[12] = second compound 0.0316 µM, first compound 10 µM
[13] = second compound 0.1 µM, first compound 0.0316 µM
[14] = second compound 0.1 µM, first compound 0.1 µM
[15] = second compound 0.1 µM, first compound 0.316 µM
[16] = second compound 0.1 µM, first compound 1 µM
[17] = second compound 0.1 µM, first compound 3.16 µM
[18] = second compound 0.1 µM, first compound 10 µM
[19] = second compound 0.316 µM, first compound 0.0316 µM
[20] = second compound 0.316 µM, first compound 0.1 µM
[21] = second compound 0.316 µM, first compound 0.316 µM
[22] = second compound 0.316 µM, first compound 1 µM
[23] = second compound 0.316 µM, first compound 3.16 µM
[24] = second compound 0.316 µM, first compound 10 µM
[25] = second compound 1 µM, first compound 0.0316 µM
[26] = second compound 1 µM, first compound 0.1 µM
[27] = second compound 1 µM, first compound 0.316 µM
[28] = second compound 1 µM, first compound 1 µM
[29] = second compound 1 µM, first compound 3.16 µM
[30] = second compound 1 µM, first compound 10 µM
[31] = second compound 3.16 µM, first compound 0.0316 µM
[32] = second compound 3.16 µM, first compound 0.1 µM
[33] = second compound 3.16 µM, first compound 0.316 µM
[34] = second compound 3.16 µM, first compound 1 µM
[35] = second compound 3.16 µM, first compound 3.16 µM
[36] = second compound 3.16 µM, first compound 10 µM
[37] = second compound 10 µM, first compound 0.0316 µM
[38] = second compound 10 µM, first compound 0.1 µM
[39] = second compound 10 µM, first compound 0.316 µM
[40] = second compound 10 µM, first compound 1 µM
[41] = second compound 10 µM, first compound 3.16 µM
[42] = second compound 10 µM, first compound 10 µM
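Also: spheroids exposed to the agents for one week before reading.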
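For viability, T/C in this document: percent of vehicle DMSO control viability so 100% = untreated growth.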

## C=CCn1c(=O)c2cnc(Nc3ccc(N4CCN(C)CC4)cc3)nc2n1-c1cccc(C(C)(C)O)n1 + CN(C)c1ccc(Nc2c3ccc(NC(=O)CCN4CCCC4)cc3nc3cc(NC(=O)CCN4CCCC4)ccc23)cc1
[1]
  IC50: 0.913 µM
[2]
  IC50: 1.41 µM
[3]
  IC50: > 10 µM
[4]
  IC50: 2.29 µM
[5]
  IC50: 0.611 µM
[6]
  IC50: 0.233 µM
[7]
  viability, T/C: 85.4%
[8]
  viability, T/C: 99.5%
[9]
  viability, T/C: 65%
[10]
  viability, T/C: 44.2%
[11]
  viability, T/C: 53.7%
[12]
  viability, T/C: 48.2%
[13]
  viability, T/C: 109%
[14]
  viability, T/C: 97%
[15]
  viability, T/C: 74.4%
[16]
  viability, T/C: 47%
[17]
  viability, T/C: 50.9%
[18]
  viability, T/C: 45.3%
[19]
  viability, T/C: 107%
[20]
  viability, T/C: 83.6%
[21]
  viability, T/C: 54%
[22]
  viability, T/C: 52.5%
[23]
  viability, T/C: 51.7%
[24]
  viability, T/C: 52%
[25]
  viability, T/C: 103%
[26]
  viability, T/C: 79.3%
[27]
  viability, T/C: 67.9%
[28]
  viability, T/C: 50.8%
[29]
  viability, T/C: 47.6%
[30]
  viability, T/C: 47.7%
[31]
  viability, T/C: 131%
[32]
  viability, T/C: 88.3%
[33]
  viability, T/C: 63.3%
[34]
  viability, T/C: 32.1%
[35]
  viability, T/C: 46.1%
[36]
  viability, T/C: 21.9%
[37]
  viability, T/C: 88.6%
[38]
  viability, T/C: 72.8%
[39]
  viability, T/C: 39.8%
[40]
  viability, T/C: 21.7%
[41]
  viability, T/C: 8.8%
[42]
  viability, T/C: 4.75%

## CCCS(=O)(=O)Nc1ccc(F)c(C(=O)c2c[nH]c3ncc(-c4ccc(Cl)cc4)cc23)c1F + CN(C)c1ccc(Nc2c3ccc(NC(=O)CCN4CCCC4)cc3nc3cc(NC(=O)CCN4CCCC4)ccc23)cc1
[1]
  IC50: 7.87 µM
[2]
  IC50: 7.44 µM
[3]
  IC50: 7.33 µM
[4]
  IC50: 7.65 µM
[5]
  IC50: 7.08 µM
[6]
  IC50: 5.21 µM
[7]
  viability, T/C: 105%
[8]
  viability, T/C: 121%
[9]
  viability, T/C: 93.8%
[10]
  viability, T/C: 107%
[11]
  viability, T/C: 110%
[12]
  viability, T/C: 34.8%
[13]
  viability, T/C: 94.3%
[14]
  viability, T/C: 104%
[15]
  viability, T/C: 111%
[16]
  viability, T/C: 109%
[17]
  viability, T/C: 123%
[18]
  viability, T/C: 29.8%
[19]
  viability, T/C: 122%
[20]
  viability, T/C: 108%
[21]
  viability, T/C: 97.1%
[22]
  viability, T/C: 124%
[23]
  viability, T/C: 93.2%
[24]
  viability, T/C: 34.1%
[25]
  viability, T/C: 89.3%
[26]
  viability, T/C: 99.2%
[27]
  viability, T/C: 110%
[28]
  viability, T/C: 133%
[29]
  viability, T/C: 108%
[30]
  viability, T/C: 32.6%
[31]
  viability, T/C: 94.1%
[32]
  viability, T/C: 95.4%
[33]
  viability, T/C: 80.8%
[34]
  viability, T/C: 118%
[35]
  viability, T/C: 100%
[36]
  viability, T/C: 29.3%
[37]
  viability, T/C: 103%
[38]
  viability, T/C: 75.3%
[39]
  viability, T/C: 100%
[40]
  viability, T/C: 86.8%
[41]
  viability, T/C: 74%
[42]
  viability, T/C: 19.2%

## CN(C)c1ccc(Nc2c3ccc(NC(=O)CCN4CCCC4)cc3nc3cc(NC(=O)CCN4CCCC4)ccc23)cc1
Compound 0.0316 µM
  viability, T/C: 102% [middle of 12 runs]
Compound 0.1 µM
  viability, T/C: 106% [middle of 12 runs]
Compound 1 µM
  viability, T/C: 101% [middle of 12 runs]
Compound 3.16 µM
  viability, T/C: 99.7% [middle of 12 runs]
Compound 10 µM
  viability, T/C: 90% [middle of 12 runs]
Compound alone, run of 03/26/2024
  IC50: > 10 µM

## C=CC(=O)N1CCN(c2nc(=O)n(-c3c(C)ccnc3C(C)C)c3nc(-c4c(O)cccc4F)c(F)cc23)C(C)C1 (centres undefined) + CN(C)c1ccc(Nc2c3ccc(NC(=O)CCN4CCCC4)cc3nc3cc(NC(=O)CCN4CCCC4)ccc23)cc1
[1]
  IC50: > 10 µM
[2]
  IC50: > 10 µM
[3]
  IC50: > 10 µM
[4]
  IC50: > 10 µM
[5]
  IC50: > 10 µM
[6]
  IC50: > 10 µM
[7]
  viability, T/C: 94.4%
[8]
  viability, T/C: 105%
[9]
  viability, T/C: 101%
[10]
  viability, T/C: 120%
[11]
  viability, T/C: 122%
[12]
  viability, T/C: 122%
[13]
  viability, T/C: 93.6%
[14]
  viability, T/C: 103%
[15]
  viability, T/C: 122%
[16]
  viability, T/C: 122%
[17]
  viability, T/C: 119%
[18]
  viability, T/C: 109%
[19]
  viability, T/C: 97.8%
[20]
  viability, T/C: 112%
[21]
  viability, T/C: 105%
[22]
  viability, T/C: 123%
[23]
  viability, T/C: 140%
[24]
  viability, T/C: 110%
[25]
  viability, T/C: 80.8%
[26]
  viability, T/C: 105%
[27]
  viability, T/C: 103%
[28]
  viability, T/C: 121%
[29]
  viability, T/C: 135%
[30]
  viability, T/C: 93.8%
[31]
  viability, T/C: 93.5%
[32]
  viability, T/C: 111%
[33]
  viability, T/C: 114%
[34]
  viability, T/C: 117%
[35]
  viability, T/C: 132%
[36]
  viability, T/C: 121%
[37]
  viability, T/C: 79.6%
[38]
  viability, T/C: 85.5%
[39]
  viability, T/C: 115%
[40]
  viability, T/C: 115%
[41]
  viability, T/C: 124%
[42]
  viability, T/C: 73%

## C=CC(=O)N1CCN(c2nc(=O)n(-c3c(C)ccnc3C(C)C)c3nc(-c4c(O)cccc4F)c(F)cc23)C(C)C1 (centres undefined)
Compound 0.0316 µM
  viability, T/C: 89% and 91.5% and 95%
Compound 0.1 µM
  viability, T/C: 106% and 107% and 112%
Compound 0.316 µM
  viability, T/C: 102% and 127% and 100%
Compound 1 µM
  viability, T/C: 155% and 112% (2×)
Compound 3.16 µM
  viability, T/C: 145% and 124% and 111%
Compound 10 µM
  viability, T/C: 113% and 108% and 106%
Curve of compound
  IC50: > 10 µM

From PubChem BioAssay AID2060506 (Molecular Pharmacology Branch, DTP, NCI, 2025)
